# Entries after “also recorded” stand apart in the source; their conditions may differ.
# Experiments:
# B6 wild type mice = test: Murine serum cytokine/chemokine secretion after i.v. glycolipid, B6 WT mice; format: in vivo; conditions: i.v. 1 μg/mouse; for induction of serum cytokines/chemokines: sera 2 and 18 hr after injection
# Description: (§1) All the glycolipids were dissolved in 100% DMSO at a concentration of 1-2 mg/ml. For in vivo experiments, all compounds were diluted to 10 μg/ml in saline just before injection of 100 μl diluted glycolipid or 100 μl 1% DMSO into mice. Pathogen-free C57BL/6 female mice aged 6-12 weeks were obtained from the National Laboratory Animal Center (Taipei, Taiwan). Jα18 knockout (KO) B6 mice were the gifts from Dr. Masaru Taniguchi (RIKEN Research Center for Allergy and Immunology, Yokohama, Japan). All the mice were maintained in pathogen free vivarium of Institute of Cellular and Organismic Biology, Academia Sinica (Taipei, Taiwan).
# (§2) B6 WT or Jα18 KO mice were intravenously injected with vehicle or glycolipids at 0.1 or 1 μg/mouse. Serum was collected at 2 and 18 h after injection for measurement of cytokines/chemokines by Beadlyte® Mouse Cytokine kit (Millipore, N.Y.) and read by a Luminex® 200™ system (Luminex, Austin, Tex.).
# Jα18 knockout mice [1] = test: Murine serum cytokine/chemokine secretion after i.v. glycolipid, Jα18 knockout mice; format: in vivo; conditions: Jα18 KO mice, 1 μg/mouse
# Description: as §1, §2
# [2] = tested on: Jα18 KO mouse splenocytes; test: FACS analyses of Jα18 KO mouse immune cells (splenocytes) after glycolipid stimulation; format: in vivo; conditions: Jα18 KO mice, 3 days after i.v. injection, 1 μg/mouse
# Description: (§3) B6 WT or Jα18 KO mice treated with specific glycolipid (1 μg/mouse) or vehicle (1% DMSO in PBS) were sacrificed at 72 hr post-injection and their spleens were harvested. After pressing spleens through 70 um strainer and lysis of erythrocytes, the nucleated cells were resuspended in PBS buffer containing azide (0.05%) and stained with antibodies recognizing the indicated cell surface antigens for 30 min at 4° C. After washing, the splenocytes were subjected to FACS analysis. The antibodies against CD3, CD4, CD8β, CD11c, CD80, and CD86 were obtained from BD Bioscience-Pharmingen.
# [3] = tested on: Human naïve Vα24+ iNKT cells; test: Expansion of human iNKT cells; format: cell-based; conditions: DCs pulsed with glycolipid at 100 ng/ml, IL-2 culture
# Description: Human naïve Vα24^+ iNKT cells were cultured with autologous immature CD14^+ DCs pulsed with the indicated glycolipid at 100 ng/ml or DMSO on day 2 for 18 h. On day 3, the suspension cells were transferred to a new dish, cultured in the presence of 50 U/ml IL-2 (R & D Systems), and replenished with fresh medium every 3 days. The percentage of Vα24^+/Vβ11^+ cells was determined by flow cytometry on day 9. The total cell number after expansion was calculated with the Guava ViaCount reagent (Millipore, USA) and detected by the Guava system with CytoSoft™ software containing the ViaCount module (Millipore, USA).
# Vα24^+ iNKT cells and CD14^+ cells were isolated from peripheral blood cells as described previously.^19 Immature DCs were generated from the CD14^+ cells after 2-day incubation in the presence of 300 U/ml GM-CSF (R & D Systems) and 100 U/ml IL-4 (R& D Systems).
# mCD1d dimer = molecular target: T1, mCD1d dimer (Mus musculus, UniProt P11609); test: Binding strength of the binary complex between mCD1d and glycolipid (L363 antibody ELISA); conditions: KD from Scatchard transformation (FIG. 10D)
# T1 construct: Ig fusion (dimer); purchased BD Biosciences PharMingen
# T1 sequence (P11609 19-305 limits assumed): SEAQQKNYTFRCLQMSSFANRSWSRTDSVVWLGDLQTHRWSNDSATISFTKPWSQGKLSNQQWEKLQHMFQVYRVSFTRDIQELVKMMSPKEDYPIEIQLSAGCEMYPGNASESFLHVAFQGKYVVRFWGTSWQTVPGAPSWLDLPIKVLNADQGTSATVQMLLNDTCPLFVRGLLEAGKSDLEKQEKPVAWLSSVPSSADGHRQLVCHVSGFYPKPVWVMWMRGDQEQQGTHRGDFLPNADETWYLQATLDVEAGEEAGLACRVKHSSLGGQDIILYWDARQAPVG
# T1 sequence (P01887 21-119 partner): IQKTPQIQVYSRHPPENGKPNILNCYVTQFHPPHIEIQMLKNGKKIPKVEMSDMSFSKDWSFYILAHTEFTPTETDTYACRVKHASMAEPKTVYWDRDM
# Description: Different concentrations of mCD1d^di-glycolipid complexes coated on the ELISA plate were incubated with the saturated amounts of L363 antibody (BioLegend) conjugated with biotin, followed by streptavidin-HRP detection and ELISA measurement. The KD between L363 antibody and the indicated mCD1d^di-glycolipid complex was calculated from the linear regression of the Scatchard transformation of the L363 antibody binding curve using GraphPad Prism software. […] Next, the KD of the binary complex was determined as follows. Different concentrations of glycolipids were incubated with fixed amounts of mCD1d dimer at 37° C. overnight, and then mCD1d^di-glycolipid complexes were coated on the 96 well ELISA plate at 4° C. overnight. After washing and blocking with BSA at room temperature (RT) for 1 hr, L363 antibody conjugated with biotin was added for 30 min at RT, followed by incubation with streptavidin-HRP for 30 min at RT and detection with an ELSIA reader. KD values of the binary complex were calculated from the linear regression of the Scatchard transformation of the L363 antibody binding curve.
# mouse iNKT TCR = mouse iNKT TCR (Mus musculus, UniProt A0A0B4J1J9+P11609); test: Binding avidity of mCD1d-loaded glycolipids to Vα14+ iNKT cells (ternary interaction); conditions: for Kd: mCD1d-glycolipid complex, DN3A4-1.2 murine iNKT hybridoma cells
# Description: Briefly, murine CD1d:Ig dimer (BD Biosciences PharMingen, San Diego, Calif.) was loaded with glycolipids at a molar ratio of 1:10 or vehicle for overnight at 37° C. Murine 1.2 Vα14^+ iNKT cells were incubated with various doses of dimer-glycolipid complex in buffer containing azide (0.05%) for 30 min at 4° C. These cells were then stained with anti-mouse IgG1-PE mAb (A85-1) for another 30 min at 4° C., followed by washing, fixation with 4% paraformaldehyde (PFA), and the bound mCD1d dimer complexes were detected by flow cytometry. The binding curve and linear fit of the Scatchard transformation were plotted by Graphpad Prism software.
# C1-pulsed splenocytes = test: CD1d dimer staining of in vivo C1-pulsed splenocytes; format: binding; conditions: B6 WT splenocytes 3 days after C1 1 μg/mouse, CD3+/CD45R− gate
# Description: FIGS. 11A-D show: CD1d dimer staining of in vivo C1-pulsed splenocytes. B6 WT splenocytes (n=3) were harvested 3 days after injection with C1 (1 μg/mouse) and stained with CD3, CD45R and the indicated dimer complex conjugated with RPE for 1 hr at 4 degrees Celsius. (11A) CD3+/CD45R− cells were gated to analyze the dimer staining. (11B) unloaded dimer was used as the control. (11C) mCD1d dimer loaded with 7DW8-5-Glc stained 17.1±0.8% of C1-pulsed splenocytes. (11D) mCD1d dimer loaded with 7DW8-5 stained 36.2±5.0% of C1-pulsed splenocytes.
# B6 WT mice splenocytes = test: FACS analyses of WT mouse immune cells (splenocytes) after glycolipid stimulation; format: in vivo; conditions: 1 μg/mouse, 72 hr post-injection
# Description: as §3
# human iNKT TCR = human iNKT TCR (Homo sapiens, UniProt A0A0B4J240+P15813); test: Binding avidity of hCD1d-loaded glycolipids with Vα24+ iNKT cells (ternary interaction)
# Description: Binding avidity of human CD1d-glycolipid complexes to Vα24^+ iNKT cells expanded by 7DW8-5 at 100 ng/ml was determined as described previously.^19
# (§4) Vα24^+ iNKT cell lines expanded with 7DW8-5 or C1 were generated as follows. After irradiation with 2,000 rad, the immature DCs were cocultured with syngenic Vα24^+ iNKT cells in the presence of 7DW8-5 or C1 at 100 ng/ml for 1 day. The cells were expanded in the presence of 50 U/ml IL-2 for 10-14 days after lipid removal. The same procedures were repeated once for further stimulation and expansion of iNKT cells.
# [4] = tested on: Murine DN3A4-1.2 Vα14+ iNKT hybridoma cells; test: mCD1d vs. hCD1d swapping assay, murine iNKT cells; format: cell-based, mouse; conditions: presented by mCD1d (A20-CD1d) or hCD1d (HeLa-CD1d), 1, 0.1, 0.01 μg/ml
# Description: (§5) Murine DN3A4-1.2 Vα14^+ iNKT hybridoma cells or C1-expanded Vα24^+ iNKT cells were pulsed with the indicated glycolipid antigen presented either by mCD1d (A20-CD1d cells) or hCD1d (HeLa-CD1d cells) at 1, 0.1, and 0.01 μg/ml. After 18 hr, the supernatants were harvested for the measurement of cytokine secretion(s). IL-2 released from Vα14^+ iNKT cells was determined by ELISA assay. IFN-γ, IL-4 and IL-2 secreted from Vα24^+ iNKT cells were detected using Beadlyte® Human Cytokine kit (Millipore, N.Y., USA) and Luminex® 200™ reading system.
# [5] = tested on: C1-expanded Vα24+ iNKT cells; test: mCD1d vs. hCD1d swapping assay, human iNKT cells; format: cell-based; conditions: presented by mCD1d (A20-CD1d) or hCD1d (HeLa-CD1d), 1, 0.1, 0.01 μg/ml
# Description: as §4, §5
# Jα18 knockout mice [6] = conditions: Jα18 KO mice; cited from earlier work
# murine iNKT cell = conditions: as compared to αGalCer; cited from earlier work
# human iNKT cell = conditions: as compared to αGalCer; cited from earlier work
# mouse iNKT TCR, sequence (A0A0B4J1J9 entry or part of it, one chain of several): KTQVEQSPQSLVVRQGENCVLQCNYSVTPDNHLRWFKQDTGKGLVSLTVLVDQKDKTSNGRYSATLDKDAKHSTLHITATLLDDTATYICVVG
# human iNKT TCR, sequence (A0A0B4J240 22-114): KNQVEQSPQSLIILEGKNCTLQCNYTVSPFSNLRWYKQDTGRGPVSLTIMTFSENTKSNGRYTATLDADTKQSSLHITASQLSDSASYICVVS
# human iNKT TCR, sequence (A0A075B6N4 22-114, further chain): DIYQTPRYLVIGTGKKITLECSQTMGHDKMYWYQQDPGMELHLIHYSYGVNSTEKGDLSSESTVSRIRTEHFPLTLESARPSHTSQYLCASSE
# human iNKT TCR, sequence (P61769 21-119, further chain): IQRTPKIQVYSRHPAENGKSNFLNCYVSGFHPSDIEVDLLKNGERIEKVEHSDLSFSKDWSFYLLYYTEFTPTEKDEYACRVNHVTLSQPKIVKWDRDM
# human iNKT TCR, sequence (P15813 20-301): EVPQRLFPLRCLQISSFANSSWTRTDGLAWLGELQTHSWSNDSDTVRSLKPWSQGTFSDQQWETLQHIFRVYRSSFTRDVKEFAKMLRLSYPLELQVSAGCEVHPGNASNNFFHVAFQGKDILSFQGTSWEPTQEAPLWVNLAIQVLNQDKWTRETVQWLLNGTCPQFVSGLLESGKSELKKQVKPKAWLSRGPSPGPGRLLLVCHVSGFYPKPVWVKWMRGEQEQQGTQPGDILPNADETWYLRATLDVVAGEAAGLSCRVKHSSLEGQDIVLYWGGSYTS
smiles,measurement,setting,value
CC[C@@H](O)[C@@H](O)[C@H](CO[C@H]1OC(CO)[C@@H](O)C(O)C1O)NC(=O)Cc1ccc(F)cc1 (stereo partly drawn) [Compound 7DW8-5-Glc],"levels of KC, MCP-1, IP-10 and MIG chemokines",B6 wild type mice; sera 2 and 18 hr,relatively high levels
same,levels of Th1 and Th2 cytokines,B6 wild type mice; sera 2 and 18 hr,very low levels
same,"secretion of chemokines including KC, MCP-1, IP-10 and MIG",Jα18 knockout mice [1],triggered the secretion
same,induction of cytokines,Jα18 knockout mice [1]; sera 2 and 18 hr after injection,no induction of cytokines
same,CD11chi monocyte-derived DCs expansion and activation,[2],significantly expanded and activated
same,"total splenocytes, CD4+ T and CD8+ T cells",[2],No significant differences
same,expanding human iNKT cells in vitro (number of expanded iNKT cells on day 9),[3],significantly (p=0.0009) better than 7DW8-5
same,binding avidity to mCD1d dimer relative to αGalCer,mCD1d dimer,~20 fold
same,binding avidity of the murine ternary complex versus C34-Glc,mouse iNKT TCR,comparable
same,C1-pulsed splenocytes stained by mCD1d dimer loaded with glycolipid,C1-pulsed splenocytes,17.1±0.8%
CCCCCCCCCCCCCC[C@@H](O)[C@@H](O)[C@H](CO[C@H]1O[C@H](CO)[C@@H](O)[C@H](O)[C@@H]1O)NC(=O)CCCCCCCCCCc1ccc(F)cc1 [Compound 7DW8-5-Man],induction of serum cytokines/chemokines,B6 wild type mice,failed to induce any cytokines/chemokines
same,expansion of immune cells,B6 WT mice splenocytes,did not expand any types of immune cells
same,staining of murine iNKT cells with CD1d-glycolipid dimer,mouse iNKT TCR,lack of staining
same,staining of human iNKT cells with CD1d-glycolipid dimer,human iNKT TCR,lack of staining
same,cytokine secretion from mouse iNKT cells,[4],could not stimulate
same,cytokine secretion from human iNKT cells,[5],could not stimulate
"CCCCCCCCCCCCCCCCCCCCCCCCCC(=O)N[C@@H](CO[C@H]1O[C@H](CO)[C@H](O)[C@H](O)[C@H]1O)[C@H](O)[C@H](O)CCCCCCCCCCCCCC [Compound C1, α-galactosylceramide, reference compound]",Kd,mouse iNKT TCR,1.24 ± 0.003 nM
same,Kd,"human iNKT TCR; hCD1d-glycolipid complex, human Vα24+/Vβ11+ iNKT cells",16.4 ± 4.2 nM
same,IFN-γ in the sera,Jα18 knockout mice [6],not secreted
CCC(=O)N[C@@H](CO[C@H]1OC(CO)[C@@H](O)C(O)C1O)[C@H](O)[C@H](O)CC (stereo partly drawn) [Compound C1-Glc],induction of serum cytokines/chemokines,B6 wild type mice,triggered both cytokines and chemokines; also recorded: better than 7DW8-5-Glc
same,"CD80+ DCs activated, as compared to 7DW8-5-Glc",B6 WT mice splenocytes,~3.5 fold
same,"CD86+ DCs activated, as compared to 7DW8-5-Glc",B6 WT mice splenocytes,~3 fold
same,"total splenocytes and DCs expanded, as compared to 7DW8-5-Glc",B6 WT mice splenocytes,~1.3 fold
same,Kd,mouse iNKT TCR,5.14 ± 0.11 nM
same,murine iNKT cell proliferation,murine iNKT cell,less stimulatory
same,human iNKT cell proliferation,human iNKT cell,more potent
CC[C@@H](O)[C@@H](O)[C@H](CO[C@H]1OC(CO)[C@@H](O)C(O)C1O)NC(=O)Cc1ccc(Oc2ccc(F)cc2)cc1 (stereo partly drawn) [Compound C34-Glc],induction of serum cytokines/chemokines,B6 wild type mice,triggered both cytokines and chemokines; also recorded: better than 7DW8-5-Glc
same,"CD80+ DCs activated, as compared to 7DW8-5-Glc",B6 WT mice splenocytes,~2 fold
same,"CD86+ DCs activated, as compared to 7DW8-5-Glc",B6 WT mice splenocytes,~2 fold
same,Kd,mouse iNKT TCR,7.96 ± 1.27 nM
